Assay results reported in patent US11135234B2, “Effective aminoglycoside antibiotic for multidrug-resistant bacteria” (MICROBIAL CHEMISTRY RESEARCH FOUNDATION, priority 2015, dated 2021).
Converted amounts (≈) assume the structure as drawn.

Key:
S. aureus RN4220/pMS520 = experiment: MIC, agar plate dilution method, S. aureus RN4220/pMS520; type: cell-based, Staphylococcus aureus; conditions: for minimal inhibitory concentration (MIC): S. aureus RN4220/pMS520, MRSA; for MIC: Staphylococcus aureus, MRSA, read-out: minimal inhibitory concentration (MIC), S. aureus RN4220/pMS520, MRSA
Experimental: (§1) As for the representative compounds of a new aminoglycoside antibiotic of the present invention described in Examples, the minimal inhibitory concentration (MIC, μg/mL) was measured for various assay strains of bacteria using an agar plate dilution method in accordance with the method described in the Japan Society of Chemotherapy.

[1] = system: A. baumannii ATCC BAA-1710; experiment: MIC, agar plate dilution method, A. baumannii ATCC BAA-1710; type: cell-based, Acinetobacter baumannii; conditions: for minimal inhibitory concentration (MIC): A. baumannii ATCC BAA-1710, MDRA; for MIC: Acinetobacter baumannii, ATCCBAA1710, A. baumannii ATCC BAA-1710, MDRA, read-out: minimal inhibitory concentration (MIC)
Experimental: as §1

S. marcescens TH-0447 = experiment: MIC, agar plate dilution method, S. marcescens TH-0447; type: cell-based, Serratia marcescens; conditions: for minimal inhibitory concentration (MIC): S. marcescens TH-0447, AMK-resistant; for MIC: Serratia marcescens, TH0447, S. marcescens TH-0447, AMK-resistant, read-out: minimal inhibitory concentration (MIC)
Experimental: as §1

S. marcescens GN6944 = experiment: MIC, agar plate dilution method, S. marcescens GN6944; type: cell-based, Serratia marcescens; conditions: S. marcescens GN6944, GM-resistant; for MIC: Serratia marcescens, read-out: minimal inhibitory concentration (MIC)
Experimental: as §1

E. coli JM109/pMW218 = experiment: MIC, agar plate dilution method, E. coli JM109/pMW218; type: cell-based, Escherichia coli; conditions: for minimal inhibitory concentration (MIC): E. coli JM109/pMW218, Sensitive bacterium; for MIC: Escherichia coli, JM109/PMW218, E. coli JM109/pMW218, Sensitive bacterium, read-out: minimal inhibitory concentration (MIC)
Experimental: as §1

S. aureus RN4220 = experiment: MIC, agar plate dilution method, S. aureus RN4220; type: cell-based, Staphylococcus aureus; conditions: for minimal inhibitory concentration (MIC): S. aureus RN4220, Sensitive bacterium; for MIC: Staphylococcus aureus, RN4220, S. aureus RN4220, Sensitive bacterium, read-out: minimal inhibitory concentration (MIC)
Experimental: as §1

[2] = system: K. pneumoniae ATCC BAA-1705; experiment: MIC, agar plate dilution method, K. pneumoniae ATCC BAA-1705; type: cell-based, Klebsiella pneumoniae; conditions: for minimal inhibitory concentration (MIC): K. pneumoniae ATCC BAA-1705, KPC-producing strain; for MIC: Klebsiella pneumoniae, ATCCBAA1705, K. pneumoniae ATCC BAA-1705, KPC-producing strain, read-out: minimal inhibitory concentration (MIC)
Experimental: as §1

S. aureus MF490 = experiment: MIC, agar plate dilution method, S. aureus MF490; type: cell-based, Staphylococcus aureus; conditions: for minimal inhibitory concentration (MIC): S. aureus MF490, MRSA; for MIC: Staphylococcus aureus, MRSA, read-out: minimal inhibitory concentration (MIC)
Experimental: as §1

E. faecium ATCC19434 = experiment: MIC, agar plate dilution method, E. faecium ATCC19434; type: cell-based, Enterococcus faecium; conditions: for minimal inhibitory concentration (MIC): E. faecium ATCC19434; for MIC: Enterococcus faecium, ATCC19434, E. faecium ATCC19434, read-out: minimal inhibitory concentration (MIC)
Experimental: as §1

P. aeruginosa MSC17707 = experiment: MIC, agar plate dilution method, P. aeruginosa MSC17707; type: cell-based, Pseudomonas aeruginosa; conditions: for minimal inhibitory concentration (MIC): P. aeruginosa MSC17707, AMK-resistant; for MIC: Pseudomonas aeruginosa, MSC17707, P. aeruginosa MSC17707, AMK-resistant, read-out: minimal inhibitory concentration (MIC)
Experimental: as §1

[3] = system: K. pneumoniae ATCC BAA-2146; experiment: MIC, agar plate dilution method, K. pneumoniae ATCC BAA-2146; type: cell-based, Klebsiella pneumoniae; conditions: for minimal inhibitory concentration (MIC): K. pneumoniae ATCC BAA-2146, NDM-producing strain; for MIC: Klebsiella pneumoniae, ATCCBAA2146, K. pneumoniae ATCC BAA-2146, NDM-producing strain, read-out: minimal inhibitory concentration (MIC)
Experimental: as §1

P. aeruginosa MSC01035 = experiment: MIC, agar plate dilution method, P. aeruginosa MSC01035; type: cell-based, Pseudomonas aeruginosa; conditions: P. aeruginosa MSC01035, ABK-resistant; for MIC: Pseudomonas aeruginosa, read-out: minimal inhibitory concentration (MIC)
Experimental: as §1

P. aeruginosa PAO1/GN315 = experiment: MIC, agar plate dilution method, P. aeruginosa PAO1/GN315; type: cell-based, Pseudomonas aeruginosa; conditions: for minimal inhibitory concentration (MIC): P. aeruginosa PAO1/GN315, AMK-resistant; for MIC: Pseudomonas aeruginosa, read-out: minimal inhibitory concentration (MIC), P. aeruginosa PAO1/GN315, AMK-resistant
Experimental: as §1

P. aeruginosa PAO1 = experiment: MIC, agar plate dilution method, P. aeruginosa PAO1; type: cell-based, Pseudomonas aeruginosa; conditions: for minimal inhibitory concentration (MIC): P. aeruginosa PAO1, Sensitive bacterium; for MIC: Pseudomonas aeruginosa, PAO1, P. aeruginosa PAO1, Sensitive bacterium, read-out: minimal inhibitory concentration (MIC)
Experimental: as §1

## 4″-N-(trans-1,4-4-aminocyclohexyl)apramycin [Compound A4-g]
S. aureus RN4220/pMS520
  minimal inhibitory concentration (MIC): 4 µg/mL
[1]
  minimal inhibitory concentration (MIC): 32 µg/mL
S. marcescens TH-0447
  minimal inhibitory concentration (MIC): 16 µg/mL
S. marcescens GN6944
  minimal inhibitory concentration (MIC): 16 µg/mL
E. coli JM109/pMW218
  minimal inhibitory concentration (MIC): 2 µg/mL
S. aureus RN4220
  minimal inhibitory concentration (MIC): 4 µg/mL
[2]
  minimal inhibitory concentration (MIC): 2 µg/mL
S. aureus MF490
  minimal inhibitory concentration (MIC): 16 µg/mL
E. faecium ATCC19434
  minimal inhibitory concentration (MIC): 32 µg/mL
P. aeruginosa MSC17707
  minimal inhibitory concentration (MIC): 32 µg/mL
[3]
  minimal inhibitory concentration (MIC): 2 µg/mL
P. aeruginosa MSC01035
  minimal inhibitory concentration (MIC): 32 µg/mL
P. aeruginosa PAO1/GN315
  minimal inhibitory concentration (MIC): 16 µg/mL
P. aeruginosa PAO1
  minimal inhibitory concentration (MIC): 16 µg/mL

## CNC1C(O[C@H]2OC(CO)[C@@H](NC(=O)CN)[C@H](O)C2O)O[C@H]2CC(N)[C@@H](O[C@@H]3C(N)C[C@@H](N)C(O)[C@H]3O)OC2C1O (single isomer, unassigned) [Compound V1-a, 4″-N-glycylapramycin]
S. aureus RN4220/pMS520
  minimal inhibitory concentration (MIC): 4 µg/mL (≈ 6.7 µM)
[1]
  minimal inhibitory concentration (MIC): 8 µg/mL (≈ 13.4 µM)
S. marcescens TH-0447
  minimal inhibitory concentration (MIC): 8 µg/mL (≈ 13.4 µM)
S. marcescens GN6944
  minimal inhibitory concentration (MIC): 8 µg/mL (≈ 13.4 µM)
E. coli JM109/pMW218
  minimal inhibitory concentration (MIC): 2 µg/mL (≈ 3.35 µM)
S. aureus RN4220
  minimal inhibitory concentration (MIC): 4 µg/mL (≈ 6.7 µM)
[2]
  minimal inhibitory concentration (MIC): 2 µg/mL (≈ 3.35 µM)
S. aureus MF490
  minimal inhibitory concentration (MIC): 16 µg/mL (≈ 26.8 µM)
E. faecium ATCC19434
  minimal inhibitory concentration (MIC): 32 µg/mL (≈ 53.6 µM)
P. aeruginosa MSC17707
  minimal inhibitory concentration (MIC): 8 µg/mL (≈ 13.4 µM)
[3]
  minimal inhibitory concentration (MIC): 2 µg/mL (≈ 3.35 µM)
P. aeruginosa MSC01035
  minimal inhibitory concentration (MIC): 4 µg/mL (≈ 6.7 µM)
P. aeruginosa PAO1/GN315
  minimal inhibitory concentration (MIC): 4 µg/mL (≈ 6.7 µM)
P. aeruginosa PAO1
  minimal inhibitory concentration (MIC): 4 µg/mL (≈ 6.7 µM)

## CNC1C(O[C@H]2OC(CO)[C@@H](NC(=O)CN)[C@H](O)C2O)O[C@H]2CC(N)[C@@H](O[C@@H]3C(N)C[C@@H](N)C(O)[C@H]3O)OC2C1O (single isomer, unassigned) [Compound V1-i, 5-epi-4″-N-glycylapramycin]
S. aureus RN4220/pMS520
  MIC: 2 µg/mL (≈ 3.35 µM)
[1]
  MIC: 4 µg/mL (≈ 6.7 µM)
S. marcescens TH-0447
  MIC: 8 µg/mL (≈ 13.4 µM)
S. marcescens GN6944
  MIC: 8 µg/mL (≈ 13.4 µM)
E. coli JM109/pMW218
  MIC: 1 µg/mL (≈ 1.68 µM)
S. aureus RN4220
  MIC: 2 µg/mL (≈ 3.35 µM)
[2]
  MIC: 2 µg/mL (≈ 3.35 µM)
S. aureus MF490
  MIC: 8 µg/mL (≈ 13.4 µM)
E. faecium ATCC19434
  MIC: 16 µg/mL (≈ 26.8 µM)
P. aeruginosa MSC17707
  minimal inhibitory concentration (MIC): 2 µg/mL (≈ 3.35 µM)
[3]
  MIC: 1 µg/mL (≈ 1.68 µM)
P. aeruginosa MSC01035
  MIC: 4 µg/mL (≈ 6.7 µM)
P. aeruginosa PAO1/GN315
  MIC: 4 µg/mL (≈ 6.7 µM)
P. aeruginosa PAO1
  MIC: 2 µg/mL (≈ 3.35 µM)

## NCC[C@H](O)C(=O)N[C@@H]1C[C@H](N)[C@@H](O[C@H]2O[C@H](CN)CC[C@H]2N)[C@H](O)[C@H]1O[C@H]1O[C@H](CO)[C@@H](O)[C@H](N)[C@H]1O [ABK, arbekacin, reference compound]
S. aureus RN4220/pMS520
  MIC: 1 µg/mL (≈ 1.81 µM)
[1]
  MIC: 32 µg/mL (≈ 57.9 µM)
S. marcescens TH-0447
  MIC: 64 µg/mL (≈ 116 µM)
S. marcescens GN6944
  MIC: 8 µg/mL (≈ 14.5 µM)
E. coli JM109/pMW218
  MIC: 0.5 µg/mL (≈ 0.905 µM)
S. aureus RN4220
  MIC: 1 µg/mL (≈ 1.81 µM)
[2]
  MIC: 16 µg/mL (≈ 29 µM)
S. aureus MF490
  MIC: 64 µg/mL (≈ 116 µM)
E. faecium ATCC19434
  MIC: 8 µg/mL (≈ 14.5 µM)
P. aeruginosa MSC17707
  MIC: 4 µg/mL (≈ 7.24 µM)
[3]
  MIC: > 64 µg/mL
P. aeruginosa MSC01035
  MIC: > 64 µg/mL
P. aeruginosa PAO1/GN315
  MIC: 8 µg/mL (≈ 14.5 µM)
P. aeruginosa PAO1
  MIC: 2 µg/mL (≈ 3.62 µM)

## NCC[C@H](O)C(=O)N[C@@H]1C[C@H](N)[C@@H](O[C@H]2O[C@H](CN)[C@@H](O)[C@H](O)[C@H]2O)[C@H](O)[C@H]1O[C@H]1O[C@H](CO)[C@@H](O)[C@H](N)[C@H]1O [AMK, amikacin, reference compound]
S. aureus RN4220/pMS520
  MIC: 64 µg/mL (≈ 109 µM)
[1]
  MIC: 64 µg/mL (≈ 109 µM)
S. marcescens TH-0447
  MIC: > 64 µg/mL
S. marcescens GN6944
  MIC: 8 µg/mL (≈ 13.7 µM)
E. coli JM109/pMW218
  MIC: 0.5 µg/mL (≈ 0.854 µM)
S. aureus RN4220
  MIC: 2 µg/mL (≈ 3.42 µM)
[2]
  MIC: 32 µg/mL (≈ 54.6 µM)
S. aureus MF490
  MIC: > 64 µg/mL
E. faecium ATCC19434
  MIC: 32 µg/mL (≈ 54.6 µM)
P. aeruginosa MSC17707
  MIC: 32 µg/mL (≈ 54.6 µM)
[3]
  MIC: > 64 µg/mL
P. aeruginosa MSC01035
  MIC: > 64 µg/mL
P. aeruginosa PAO1/GN315
  MIC: 64 µg/mL (≈ 109 µM)
P. aeruginosa PAO1
  MIC: 2 µg/mL (≈ 3.42 µM)
